Source: publication PMC9976893, “Dynamic states of eIF6 and SDS variants modulate interactions with uL14 of the 60S ribosomal subunit” (Nucleic Acids Research, 2023)

Tested on: full-length human eIF6
Assay: Surface plasmon resonance of uL14 peptides on immobilized eIF6
Conditions: BIAcore S200, eIF6 on CM5 chip, peptide 0-500 μM in 20 mM HEPES pH 7.4, 150 mM NaCl, 0.01% BSA, 0.002% Tween 20; repeated three times; non-specific binding subtracted
Method: SPR analyses were carried out using a BIAcore S200 instrument (GE-Healthcare). eIF6 (50 μg/ml) was solubilized in 20 mM ammonium acetate pH 4.0 and immediately immobilized on a CM5 sensor chip (4913 Response Units [RU] using NHS/EDC chemistry). After baseline stabilization, titrations were performed by injecting increasing concentrations (0–500 μM, 1:2 dilutions) of uL14-WT ([…]), the site-specific mutant peptides, or the uL14-ΔC ([…]) peptide, solubilized in running buffer (20 mM HEPES pH 7.4, 150 mM NaCl, 0.01% BSA, and 0.002% Tween 20). At the end of each titration, a solution of 20 mM HEPES pH 7.4 and 1.5 M NaCl was used to regenerate the chip. The flow rate was 25 μl/min. Peptides were solubilized in water and their concentration determined at 280 nm using the molar extinction coefficient ϵ280 = 5500 M^−1 cm^−1. To ensure reproducibility, each experiment was repeated three times. Sensograms were corrected for baseline.
For SPR studies, full-length elF6 was immobilized to the surface, and the C-terminal peptide of uL14 (aa 121–140) was used in the fluid phase (Figure 2D). […] The contribution of non-specific binding of the peptide to the surface was subtracted for each sensorgram. […] It further highlighted the significance of the N135 and S138 for interaction with eIF6. […]

Q: VAKECADLWPRI [uL14-ΔC] was tested. Which “binding to immobilized eIF6 (SPR)” value did it give?
A: complete loss in binding
